In patent publication US5463073A, “Thienoimidazole derivatives, their production and use” (Takeda Chemical Industries, Ltd., priority 1990, dated 1995):

Key:
[1] = target: T1, angiotensin II (A-II) receptor (Bos taurus, UniProt P25104); assay: Inhibition of binding of angiotensin II to angiotensin II receptor (radioreceptor assay, 125I-A-II, bovine adrenal cortex membrane fraction); details: room temperature, 1 h; for inhibition at 1 µM: 10^-6 M; for inhibition at 0.1 µM: 10^-7 M
T1 construct: membrane fraction was prepared from bovine adrenal cortex; from tissue; host or cells: bovine adrenal cortex membrane fraction
T1 sequence (P25104 1-359): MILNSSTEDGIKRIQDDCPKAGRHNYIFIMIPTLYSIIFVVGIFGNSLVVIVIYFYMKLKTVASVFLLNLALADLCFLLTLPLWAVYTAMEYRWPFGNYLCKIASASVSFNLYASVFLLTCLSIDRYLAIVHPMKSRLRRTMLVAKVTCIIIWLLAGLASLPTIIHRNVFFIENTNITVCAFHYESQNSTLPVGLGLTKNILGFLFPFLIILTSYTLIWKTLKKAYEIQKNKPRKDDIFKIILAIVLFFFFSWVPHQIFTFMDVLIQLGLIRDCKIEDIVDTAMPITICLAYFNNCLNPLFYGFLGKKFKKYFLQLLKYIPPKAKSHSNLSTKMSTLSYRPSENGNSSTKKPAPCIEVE
Procedure: Inhibitory Effect of Binding of Angiotensin-II to Angiotensin Receptor
An experiment of inhibition on the binding of angiotensin II (A-II) receptor was conducted by modifying the method of Douglas et al. [Endocrinology, 102, 685-696 (1978)]. An A-II receptor membrane fraction was prepared from bovine adrenal cortex.
The compound of the present invention (10^-6 M or 10^-7 M) and^125 I-angiotensin II (^125 I-A-II) (1.85 kBq/50 μl) were added to the receptor membrane fraction, and the mixture was incubated at room temperature for one hour. The receptor-bound and free ^125 I-A-II were separated through a filter (Whatman GF/B filter), and the radioactivity of ^125 I-A-II bound to the receptor was measured.

[2] = tested on: A-II-induced pressor action; assay: Inhibitory effect on pressor action of angiotensin II in rats (p.o.); type: in vivo, Jcl: SD rats; details: Rattus norvegicus, po; 1 mg/kg p.o.; male SD rats; A-II 100 ng/kg i.v.; read-out: Pressor Response (percent inhibition of A-II-induced pressor action)
Source text: Inhibitory Effect of the Compound of the Present Invention on Pressor Action of Angiotensin
Jcl: SD rats (9 week old, male) were employed. On the day previous to that of the experiment, these animals were applied with cannulation into the femoral artery and vein under anesthesia with pentobarbital Na. The animals were fasted but allowed to access freely to drinking water until the experiment was started. Just on the day of conducting the experiment, the artery cannula was connected with a blood-pressure transducer, and the average blood pressure was recorded by means of polygraph. Before administration of the drug, the pressor action due to intravenous administration of angiotensin II (A-II) (100 ng/kg) as the control was measured. The drugs were orally administered, then, at each point of the measurement, A-II was administered intravenously, and the pressor action was similarly measured. By comparing the pressor action before and after administration of the drug, the percent inhibition by the drug on A-II-induced pressor action was evaluated.

| Compound | inhibition at 1 µM [1] [%] | inhibition at 0.1 µM [1] [%] | inhibition in vivo at 1 mg/kg [2] [%] |
| --- | --- | --- | --- |
| CSc1nc2c(C)sc(C(=O)O)c2n1Cc1ccc(-c2ccccc2-c2nn[nH]n2)cc1 [Working Example 15] | 50 | 14 | ≥ 70 |
| Cc1sc(C(=O)O)c2c1nc(SC(C)C)n2Cc1ccc(-c2ccccc2-c2nnn[nH]2)cc1 [Working Example 17, 2-Isopropylthio-4-methyl-1-[[2'-(1H-tetrazol-5-yl]-biphenyl-4-yl]methyl]thieno[3,4-d]imidazole-6-carboxylic acid] | 64 | 26 | ≥ 70 |
| CCCCSc1nc2c(C)sc(C(=O)O)c2n1Cc1ccc(-c2ccccc2-c2nn[nH]n2)cc1 [Working Example 18, 2-Butylthio-4-methyl-1-[[2',(1H-tetrazol-5-yl)biphenyl-4-yl]methyl]thieno[3,4-d]imidazole-6-carboxylic acid] | 66 | 33 | 30 to 50 |
| CCSc1nc2csc(C(=O)O)c2n1Cc1ccc(-c2ccccc2-c2nnn[nH]2)cc1 [Working Example 22, 2-Ethylthio-1-[[2'-(1H-tetrazol-5-yl)biphenyl-4-yl]methyl]thieno[3,4-d]imidazole-6-carboxylic acid] | 84 | 45 | 50 to 70 |
| CCSc1nc2c(C)sc(C(=O)OC)c2n1Cc1ccc(-c2ccccc2-c2nn[nH]n2)cc1 [compound 1] | 91 | 68 | 30 to 50 |
| CCSc1nc2c(C)sc(C(=O)O)c2n1Cc1ccc(-c2ccccc2-c2nn[nH]n2)cc1 [compound 2] | 64 | 18 | ≥ 70 |
| CCSc1nc2c(C)sc(C(=O)OCOC(=O)C(C)(C)C)c2n1Cc1ccc(-c2ccccc2-c2nn[nH]n2)cc1 [compound 5] | 89 | 59 | ≥ 70 |
| CCSc1nc2c(C)sc(C(=O)OC(C)OC(=O)OC3CCCCC3)c2n1Cc1ccc(-c2ccccc2-c2nn[nH]n2)cc1 (stereo not drawn) [compound 6] | 84 | 46 | ≥ 70 |
| COC(=O)c1sc(C)c2nc(SC)n(Cc3ccc(-c4ccccc4-c4nn[nH]n4)cc3)c12 [compound 7] | 77 | 55 | 30 to 50 |

Continued, in another order:

| inhibition at 1 µM [1] [%] | inhibition at 0.1 µM [1] [%] | Compound | inhibition in vivo at 1 mg/kg [2] [%] |
| --- | --- | --- | --- |
| 65 | 19 | COc1nc2c(C)sc(C(=O)O)c2n1Cc1ccc(-c2ccccc2-c2nn[nH]n2)cc1 [compound 28] | ≥ 70 |
| 67 | 39 | CCOc1nc2c(C)sc(C(=O)O)c2n1Cc1ccc(-c2ccccc2-c2nn[nH]n2)cc1 [compound 29] |  |
| 72 | 33 | CCCOc1nc2c(C)sc(C(=O)O)c2n1Cc1ccc(-c2ccccc2-c2nn[nH]n2)cc1 [compound 30] |  |
| 75 | 26 | CCNc1nc2c(C)sc(C(=O)O)c2n1Cc1ccc(-c2ccccc2-c2nn[nH]n2)cc1 [compound 31] |  |
| 92 | 73 | COc1nc2c(C)sc(C(=O)OCOC(C)=O)c2n1Cc1ccc(-c2ccccc2-c2nn[nH]n2)cc1 [compound 36] | ≥ 70 |
